This is an account of results in patent US12343377B2, “Combination therapies comprising a hypomethylation agent for treating cancer” (ALX Oncology Inc., priority 2020, dated 2025).

For one series, the target named is MCL-1 (Homo sapiens, UniProt Q07820). The settings on record: selectivity profile; cited from earlier work.
In the next series the target is T1, BFL-1 (BCL2A1/A1) (Homo sapiens, UniProt Q16548).
T1 sequence (Q16548 1-175): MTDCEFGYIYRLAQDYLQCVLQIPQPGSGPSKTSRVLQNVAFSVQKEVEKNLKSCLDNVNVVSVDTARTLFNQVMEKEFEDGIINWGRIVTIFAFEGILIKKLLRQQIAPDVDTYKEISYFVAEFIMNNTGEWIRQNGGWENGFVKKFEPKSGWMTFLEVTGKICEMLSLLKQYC
The note with it: selectivity profile; cited from earlier work.

A further series addresses BCL-XL (Homo sapiens, UniProt Q07817). The note with it: selectivity profile; cited from earlier work.
Series [1] has as its system BCL-XL-dependent cells, such as platelets. The note with it: cited from earlier work.
The test system of another series is HL60 cells. The series is described as follows: In vitro phagocytosis assay, HL60 cells by human monocyte-derived macrophages. It is filed as cell-based. The settings on record: single agent, compared to untreated cells; FIG. 1A.
Series [2] can be described thus: Human PBMC viability assay. It is filed as cell-based. The settings on record: CD11c+ dendritic cells in human PBMC cultures, 1.25 pM azacitidine alone, FIG. 2, read-out: reduction of the viability of CD11c^+ dendritic cells. The method, then: PBMCs were counted and plated in complete RPMI. Drug A alone or in combination azacitidine was added to the PBMCs. Following 72-hour or five day incubation at 37° C., cells were stained with a fixable viability dye followed by staining with cell surface markers: CD3, CD19, CD14, CD56, CD16, CD11c, and HLADR (Biolegend). Cells were processed for flow cytometry by Attune NxT and analyzed by FlowJo 10.3. Viability gating strategy included double singlet exclusion by FSC height and FSC width followed by cell type surface marker then viability gate. CD11c DCs were identified as lineage negative (CD3, CD19, CD14, CD16 and CD56) HLADR^+ CD11c^+. Percent viable cells were tabulated using GraphPad Prism 8.
Dendritic cells (DCs) are antigen-presenting cells (also known as accessory cells) of the mammalian immune system. They are believed to act as messengers between the innate and the adaptive immune systems.

For series [3], the system named is calreticulin on the surface of HL60 cells. Kind of series: Analysis of calreticulin cell-surface expression, HL60. It is filed as cell-based, human. The settings on record: with increased concentrations of azacitidine, 72 hrs; FIG. 3A. The method, then: (§1) To detect changes in calreticulin expression levels in human acute myeloid leukemia cell lines HL60, OCI-AML3 and MV4-11, cells were incubated with either 2.5 pM or 75 nM of azacitidine (Selleckchem) in complete growth medium (RPMI1640, 10% FBS) in a 37° C. 5% CO2 incubator for 72 hrs. Cells grown in complete growth medium was used as a control for calreticulin baseline expression. After incubation, cells were harvested and washed once in staining buffer (PBS, 2% FBS), stained in PBS with fixable live/dead stain (Invitrogen) for 1 hour at 4° C., washed once in staining buffer and incubated with 500 ng/mL of calreticulin-AF647 (clone 1G6A7, Novus). After a 1 hour incubation at 4° C., cells were washed twice in staining buffer and fixed in 0.5% paraformaldehyde. Cells were analyzed on an Attune (ThermoScientific), and subsequent data analysis using Flowjo 10.6.
(§2) HL60 is a TP53null FLT3 wt cell line; OCI-AML3 is TP53 wt and FLT3 wt; and MV4-11 is TP53 wt and FLT3-ITD.

Series [4] deals with calreticulin on the surface of OCI-AML3 cells. Kind of series: Analysis of calreticulin cell-surface expression, OCI-AML3. It is filed as cell-based, human. The settings on record: with increased concentrations of azacitidine, 72 hrs; FIG. 3A. How it is done: as §1, §2
In series [5] the test system is calreticulin on the surface of MV4-11 cells. Kind of series: Analysis of calreticulin cell-surface expression, MV4-11. It is filed as cell-based, human. The settings on record: for expression of the pro-phagocytic signal calreticulin in the MV411 AML cell line: FIG. 3B. The method, then:
as §1, §2
(§3) The effect of azacitidine or venetoclax on the expression levels of calreticulin on the cell surfaces of MV4-11 and primary AML cells from two different human patients was also tested.

The subject of series [6] is calreticulin on primary AML blasts. The series is described as follows: Analysis of calreticulin cell-surface expression, primary AML blasts. The settings on record: two human patients; FIG. 3B. It is filed as cell-based. The method, then: as §3
The subject of series [7] is CD47 on the cell surfaces of MV4-11. The series is described as follows: CD47 cell-surface expression, MV4-11. It is filed as cell-based, human. The note with it: FIG. 3C. How it is done:
(§4) In another set of assays, the effect of azacitidine or venetoclax on the expression levels of CD47 on the cell surfaces of MV4-11 and primary AML cells from two different human patients was tested.

Series [8] concerns CD47 on primary AML blasts. Kind of series: CD47 cell-surface expression, primary AML blasts. It is filed as cell-based. The note with it: two human patients; FIG. 3C. The method, then:
as §4

In another series the test system is HL60 tumor xenografts. The series is described as follows: Subcutaneous HL60 leukemia xenograft model. It is filed as in vivo, mice. The method, then:
(§5) Tumors were monitored until average size of all tumors reached 105 mm^3 for HL60, 75 mm^3 for MV4-11 and 112 mm^3 for OCI-AML3. […] Mice in HL60 and OCI-AML3 tumor models were dosed intraperitoneally (IP) five times, three days apart at 5 mg/kg for azacitidine, and six times, three days apart at 10 mg/kg for Drug A. MV4-11 tumor bearing mice were dosed IP three times per week at 5 mg/kg for azacitidine and 10 mg/kg for Drug A. Tumors were measured in two dimensions with calipers and tumor volume was calculated as: length×width×width×0.5, where length was the larger of the two measurements. Animals were sacrificed when tumor reached a volume of ˜2000 mm^3.
(§6) In this Example, the anti-tumor activity of Drug A in combination with azacitidine (aza) was assessed mice bearing either HL60, OCI-AML3 and MV4-11 human leukemia tumor xenografts. (See Example 1 for experimental details.) HL60 is a TP53null FLT3 wt cell line; OCI-AML3 is TP53 wt and FLT3 wt; and MV4-11 is TP53 wt and FLT3-ITD.
(§7) Mice bearing HL60 xenografted tumors were randomized to 4 groups of 4-5 mice each. One group of mice was given (a) Drug A at 10 mg/kg IP (Q3D, 6 doses total), (b) aza at 5 mg/kg IP (Q3D, 5 doses total), (c) both Drug A and aza (at the doses and administration schedule for each single agent), or (d) vehicle. Mice bearing OCI-AML3 xenografts were similarly randomized and treated. […]

In series [9] the test system is OCI-AML3 tumor xenografts. Kind of series: Subcutaneous OCI-AML3 leukemia xenograft model. It is filed as in vivo, mice. The note with it: day 20, Drug A 10 mg/kg IP Q3D 6 doses, aza 5 mg/kg IP Q3D 5 doses. How it is done: as §5, §6, §7
For a further series, the system named is MV4-11 tumor xenografts. The series is described as follows: Subcutaneous MV4-11 leukemia xenograft model. It is filed as in vivo, mice. The settings on record: day 26, Drug A 10 mg/kg and aza 5 mg/kg IP three times per week. How it is done:
as §5, §6
Mice bearing MV4-11 xenografts were randomized into 4 groups of 9-10 each. One group of mice was given Drug A at 10 mg/kg IP (3 times per week), the second group of mice was given aza at 5 mg/kg IP (three times per week), the third group was given both Drug A and aza (at the doses and administration schedule for each single agent, and the fourth group was given vehicle. […]

Series [10] deals with HL60-LUC2 acute myeloid leukemic model. The series is described as follows: Disseminated HL60-LUC2 systemic leukemic model, Drug A and azacitidine. It is filed as in vivo, mice. The method, then: After transplantation of HL60-LUC2 cells by intravenous tail injection into immunodeficient NSG mice (7.5E6 cells/animal), engraftment was confirmed by bioluminescence imaging and mice were randomized into 4 groups (10 mice/group). Treatment was performed as shown Table A below.
Treatment was continued until mice received 14 doses of single agent Drug A, single agent azacitidine, or Drug A in combination with azacitidine.

For series [11] the following is noted: cited from earlier work.
Series [12] has as its system HL60-LUC2 acute myeloid leukemic model. Kind of series: Disseminated HL60-LUC2 systemic leukemic model, Drug A and venetoclax. The note with it: monotherapy; Drug A 30 mg/kg IP, venetoclax 100 mg/kg oral gavage, Q3D 5 doses; FIG. 8.
Description: The HL60LUC2 (ATCC) cell line was injected through the tail vein of NOD-SCID female mice at a concentration of 7.5×10^6 cells per in RPMI 1640. Bioluminescence imaging (BLI) acquisition and analysis were performed using the IVIS Spectrum (Perkin Elmer) to monitor tumor growth. Firefly D-luciferin (Regis Technologies) was diluted to 15 mg/ml stock in phosphate-buffered saline and filtered before use. Groups of mice were placed in the specimen chamber and injected with 200 μl of D-luciferin intraperitoneally (IP). BLI whole-body signal was acquired at approximately 10 minutes post injection. BLI flux values were serially monitored twice a week with initial scans acquired three days post inoculation of mice. Living Image Software (Perkin Elmer) was used to quantify BLI average total flux values (photons/second, p/s) following the manual construction of regions of interest over the entire mouse body. […] Drug A-treated mice were dosed by IP injection at 30 mg/kg, five times total at three days apart. Animals were sacrificed when the total flux reached 1E11 or loss in body weight of greater than 20%.
Venetoclax and Drug A therapies were initiated 4 days post engraftment and dosed every 3 days for a total of 5 doses.

MCL-1, sequence (Q07820 whole entry, species assumed): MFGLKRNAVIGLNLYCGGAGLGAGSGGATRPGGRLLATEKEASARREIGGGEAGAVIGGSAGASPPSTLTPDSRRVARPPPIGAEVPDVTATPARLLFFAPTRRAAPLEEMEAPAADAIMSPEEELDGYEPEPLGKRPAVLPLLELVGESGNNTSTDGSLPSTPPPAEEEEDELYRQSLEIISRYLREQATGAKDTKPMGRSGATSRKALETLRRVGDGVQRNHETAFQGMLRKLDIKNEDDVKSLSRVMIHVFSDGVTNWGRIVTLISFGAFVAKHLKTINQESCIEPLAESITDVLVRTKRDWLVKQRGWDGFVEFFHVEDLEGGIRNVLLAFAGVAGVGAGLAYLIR
BCL-XL, sequence (Q07817 whole entry, species assumed): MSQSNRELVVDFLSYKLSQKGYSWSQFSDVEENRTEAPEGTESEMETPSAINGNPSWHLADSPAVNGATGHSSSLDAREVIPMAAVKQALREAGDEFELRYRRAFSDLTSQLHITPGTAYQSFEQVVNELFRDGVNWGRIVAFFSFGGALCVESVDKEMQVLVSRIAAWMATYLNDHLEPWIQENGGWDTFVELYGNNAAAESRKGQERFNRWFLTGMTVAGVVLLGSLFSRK

Consider `O=C(c1cc(-c2cc3c(cc2C(=O)N2Cc4ccccc4C[C@H]2CN2CCOCC2)OCO3)n2c1CCCC2)N(c1ccccc1)c1ccc(O)cc1` [Drug S55746, (S)—N-(4-hydroxyphenyl)-3-(6-(3-(morpholinomethyl)-1,2,3,4-tetrahydroisoquinoline-2-carbonyl)benzo[d][1,3]dioxol-5-yl)-N-phenyl-5,6,7,8-tetrahydroindolizine-1-carboxamide], for which, on MCL-1, the “binding to MCL-1” value is listed as “no significant binding”. Further, on BFL-1 (BCL2A1/A1), the “binding to BFL-1 (BCL2A1/A1)” value is “no significant binding”. In addition, on BCL-XL, the “affinity for BCL-XL” value is on record as “poor affinity”. Further, in [1], the “cytotoxic activity on BCL-XL-dependent cells, such as platelets” value is “no cytotoxic activity”.
For `Nc1ncn([C@@H]2O[C@H](CO)[C@@H](O)[C@H]2O)c(=O)n1` [azacitidine, 4-amino-1-[(2R,3R,4S,5R)-3,4-dihydroxy-5-(hydroxymethyl)oxolan-2-yl]-1,3,5-triazin-2-one], in the series with HL60 cells, the “macrophage-mediated phagocytosis of HL60 cells” value is listed as “stimulated macrophage-mediated phagocytosis of HL60 cells slightly”. Moreover, the cytotoxicity at 1.25 pM in [2] is around 40%. Also, the “expression of calreticulin on the surface of HL60 cells” value in series [3] was “increased”. Besides, the “expression of calreticulin on the surface of OCI-AML3 cells” value in series [4] is on record as “increased”. Besides, the “expression of the pro-phagocytic signal calreticulin in the MV411 AML cell line” value in [5] is given as “increase”. The “expression of calreticulin on the surface of MV4-11 cells” value in series [5] (with increased concentrations of azacitidine, 72 hrs, FIG. 3A) is recorded as “increased”. In series [6], the “expression of the pro-phagocytic signal calreticulin in primary AML blasts” value is recorded as “increase”. Besides, the “expression of the anti-phagocytic signal CD47 in the MV411 AML cell line” value in series [7] is recorded as “increase”. Moreover, the “expression of the anti-phagocytic signal CD47 in primary AML blasts” value in series [8] is “increase”. Besides, the HL60 tumor growth result with HL60 tumor xenografts (day 20, compared to vehicle control, FIG. 4A) is given as “minimally inhibited”. Besides, the “% tumor growth inhibition (TGI)” value in the series with HL60 tumor xenografts (day 20, HL60, Drug A 10 mg/kg IP Q3D 6 doses, aza 5 mg/kg IP Q3D 5 doses) was 42%; in [9], 33%; in the series on MV4-11 tumor xenografts, 49%. The tumor growth entry in series [10] (14 doses, Drug A 30 mg/kg, azacitidine 5 mg/kg, FIG. 5C) was “moderate tumor growth inhibition”. Besides, in series [10] (second set of experiments, single agent, Q3D 14 doses, FIG. 5D), the “Day by which all mice succumbed” value was around 85 days.
For `CC1(C)CCC(CN2CCN(c3ccc(C(=O)NS(=O)(=O)c4ccc(NCC5CCOCC5)c([N+](=O)[O-])c4)c(Oc4cnc5[nH]ccc5c4)c3)CC2)=C(c2ccc(Cl)cc2)C1` [venetoclax, 4-(4-{[2-(4-chlorophenyl)-4,4dimethylcyclohex-1-en-1-yl]methyl}piperazin-1-yl)-N-({3-nitro-4-[(tetrahydro-2H-pyran-4ylmethyl)amino]phenyl}sulfonyl)-2-(1H-pyrrolo[2,3-b]pyridin-5-yloxy)benzamide], in series [5], the “expression of the pro-phagocytic signal calreticulin in the MV411 AML cell line” value is “increase”. Moreover, the “expression of the pro-phagocytic signal calreticulin in primary AML blasts” value in [6] is “increase”. The “expression of the anti-phagocytic signal CD47 in the MV411 AML cell line” value in [7] is listed as “increase”. Moreover, the “expression of the anti-phagocytic signal CD47 in primary AML blasts” value in [8] is recorded as “increase”. Also, the aqueous solubility result in series [11] was “very low”. Further, the tumor growth entry in series [12] is given as “moderate tumor growth inhibition”.
